Laboratory results taken from ChEMBL document CHEMBL1130460, “ADA-Bypass by lipophilic cycloSal-ddAMP pro-nucleotides A second example of the efficiency of the cycloSal-Concept” (Bioorg Med Chem Lett, 1997).

Legend:
[1] = Hydrolysis half-life (t1/2) in phosphate buffer at pH 7.3; type: ADME
CCRF-CEM [2] = assay: Effective concentration of compound against HIV-1 infected CEM/O cells; type: functional, cell-based; details: Homo sapiens
[3] = Partition coefficient was measured in 1-octanol/phosphate buffer (pH 6.8); type: physicochemical
CCRF-CEM [4] = assay: Effective concentration of compound against HIV-2 infected CEM/O cells; type: functional, cell-based; details: Homo sapiens
CCRF-CEM [5] = assay: Cytotoxic activity was evaluated against CEM/O cells; type: functional; details: Homo sapiens
CCRF-CEM [6] = assay: Effective concentration of compound against HIV-1 infected CEM/O cells; No activity up to > 250 uM; type: functional, cell-based, Homo sapiens
CCRF-CEM [7] = assay: Effective concentration of compound against HIV-2 infected CEM/O cells; No activity up to > 250 uM; type: functional, cell-based, Homo sapiens
CCRF-CEM [8] = assay: Cytotoxic activity was evaluated against CEM/O cells; No activity up to > 250 uM; type: functional, cell-based, Homo sapiens

Row | Structure (SMILES) | half-life [1] [h] | EC50 (CCRF-CEM [2]) [µM] | logD [3] | EC50 (CCRF-CEM [4]) [µM] | CC50 (CCRF-CEM [5]) [µM] | EC50 (CCRF-CEM [6]) | EC50 (CCRF-CEM [7]) | EC50 (CCRF-CEM [8])
1 | Nc1ncnc2c1ncn2C1CCC(COP2(=O)OCc3ccccc3O2)O1 (stereo not drawn) | 8.2 | 0.12 | 0.54 | 0.11 | 21.9 |  |  | 
2 | OCc1ccccc1O [SALICYL ALCOHOL] |  |  |  |  |  | Not Active | Not Active | Not Active
3 | Cc1cccc2c1OP(=O)(OCC1CCC(n3cnc4c(N)ncnc43)O1)OC2 (stereo not drawn) | 35.1 | 0.03 | 0.91 | 0.035 | 9.54 |  |  | 
4 | COc1ccc(CO)c(O)c1 |  |  |  |  |  | Not Active | Not Active | Not Active
5 | Nc1ncnc2c1ncn2[C@H]1CC[C@@H](CO)O1 |  | 3.67 | -0.28 | 5.33 | 200 |  |  | 
6 | COc1ccc2c(c1)COP(=O)(OCC1CCC(n3cnc4c(N)ncnc43)O1)O2 (stereo not drawn) | 14 | 0.065 | 0.61 | 0.09 | 30.4 |  |  | 
7 | Cc1cccc(O)c1CO |  |  |  |  |  | Not Active | Not Active | Not Active
